9 molecules from ChEMBL document CHEMBL1201862, “PubChem BioAssay data set” (2004) can be followed below.

The target of assay [1] is G-protein coupled receptor 55 (Homo sapiens, UniProt Q9Y2T6). The assay is described as follows: selective activators of receptor GPR55 – imaging, U2OS cells, beta-arrestin-GFP redistribution, primary screen (AID 1961). It is filed as functional.
The target of assay [2] is T1, High affinity choline transporter 1 (Homo sapiens, UniProt Q9GZV3).
T1 sequence (Q9GZV3 whole entry): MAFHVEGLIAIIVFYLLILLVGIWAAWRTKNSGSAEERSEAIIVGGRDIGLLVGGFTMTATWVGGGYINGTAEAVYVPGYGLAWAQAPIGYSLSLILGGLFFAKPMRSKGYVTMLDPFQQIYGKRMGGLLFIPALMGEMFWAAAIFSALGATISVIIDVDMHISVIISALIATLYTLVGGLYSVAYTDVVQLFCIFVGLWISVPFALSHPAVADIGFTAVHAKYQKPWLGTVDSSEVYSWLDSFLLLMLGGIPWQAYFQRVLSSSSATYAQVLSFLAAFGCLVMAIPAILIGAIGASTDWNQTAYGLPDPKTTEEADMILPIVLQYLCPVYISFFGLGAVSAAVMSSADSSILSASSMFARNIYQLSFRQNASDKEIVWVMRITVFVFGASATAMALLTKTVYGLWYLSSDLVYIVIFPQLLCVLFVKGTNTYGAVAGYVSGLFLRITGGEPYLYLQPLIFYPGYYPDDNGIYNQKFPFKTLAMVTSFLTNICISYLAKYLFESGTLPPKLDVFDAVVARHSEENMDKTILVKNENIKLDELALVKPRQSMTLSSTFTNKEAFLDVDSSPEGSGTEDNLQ
The assay is described as follows: human choline transporter potentiators, potency – cell-based, 10-point CRC, membrane potential dye, dose response (AID 602376). The assay is classed as functional.

Assay [3] has as its target Serine/threonine-protein kinase pim-1 (Homo sapiens, UniProt P11309). It is filed as functional.
Assay [4] deals with Cell division cycle 7-related protein kinase (Homo sapiens, UniProt O00311). It is filed as functional.
In assay [5] the target is Homeodomain-interacting protein kinase 2 (Homo sapiens, UniProt Q9H2X6). It is filed as functional.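 Also: measured within a kinome-wide kinase profiling panel, HIPK2 being one panel member.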
Assay [6] has as its target Interleukin-1 receptor-associated kinase 4 (Homo sapiens, UniProt Q9NWZ3). The assay is classed as functional.
Assay [7] deals with T2, Glycogen synthase kinase-3 beta (Homo sapiens, UniProt P49841). It is filed as functional.
The target of assay [8] is cAMP-dependent protein kinase catalytic subunit alpha (Homo sapiens, UniProt P17612). The assay is classed as functional.
Assay [9] has as its target Dual specificity protein kinase CLK4 (Homo sapiens, UniProt Q9HAZ1). The assay is classed as functional.
The target of assay [10] is Mitogen-activated protein kinase kinase kinase kinase 4 (Homo sapiens, UniProt O95819). The assay is classed as functional.
Assay [11] deals with ALK tyrosine kinase receptor (Homo sapiens, UniProt Q9UM73). The assay is classed as functional.
For assay [12], the target named is Cyclin-dependent kinase 19 (Homo sapiens, UniProt Q9BWU1). The assay is described as follows: Navigating the Kinome. Panel member name: CDC2L6. It is filed as functional.
The nature of assay [13]: viability loss in Vero cells – cell-based, purified and synthesized samples, set 8, cytotoxicity control for M. tuberculosis inhibitor project (AID 602431). It is filed as functional. The settings on record: Mycobacterium tuberculosis.
A short description of assay [14]: HepG2 cell cytotoxicity, cytotoxicity control, set 6 (AID 602432). It is filed as functional. The settings on record: Mycobacterium tuberculosis.
The nature of assay [15]: THP-1 cell cytotoxicity, cytotoxicity control, set 6 (AID 602433). The assay is classed as functional. The settings on record: Mycobacterium tuberculosis.
Assay [16] can be described thus: Vero cell cytotoxicity, dose response, cytotoxicity control for M. tuberculosis growth inhibitor project, Vero cells, purified and synthesized compounds, set 4 (AID 504854). The assay is classed as functional. The settings on record: Mycobacterium tuberculosis.
In assay [17] the target is Protein disulfide-isomerase (Homo sapiens, UniProt P07237). In words: inhibition of PDI-driven insulin aggregation – biochemical, turbidity, absorbance, cherry-picked samples, dose response (AID 602350). The assay is classed as functional.
A further assay concerns the target X-box-binding protein 1 (Homo sapiens, UniProt P17861). The assay is classed as functional, Cricetulus griseus.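 Also: confirmatory dose-response counter-screen serving a CHOP assay.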
Assay [18] deals with Glycogen synthase kinase-3 alpha (Homo sapiens, UniProt P49840). In words: Inhibition of Human GSK-3 alpha Activity Measured in Biochemical System Using Microfluidics - 2063-06_Inhibitor_Dose_DryPowder_Activity_Set2. [Related pubchem assays (depositor defined):AID2709].
Assay [19] has as its target T2, Glycogen synthase kinase-3 beta. The assay is described as follows: Inhibition of Human GSK-3 beta Activity Measured in Biochemical System Using Microfluidics - 2063-05_Inhibitor_Dose_DryPowder_Activity_Set2. [Related pubchem assays (depositor defined):AID2709].
Assay [20] concerns the target Cyclin-dependent kinase 5/CDK5 activator 1 (Homo sapiens, UniProt Q00535). The assay is described as follows: human CDK5 activity blockade – biochemical, microfluidic mobility shift, dry powder, selectivity assay for GSK-3 alpha inhibitor project, dose response (AID 588430).
For a further assay, the system named is Erythrocyte. The assay is described as follows: FACS-based assay to assess parasite growth inhibition 96 hr Measured in Cell-Based System Using Flow Cytometry - 2126-05_Inhibitor_Dose_DryPowder_Activity. [Related pubchem assays (depositor defined):AID488774]. It is filed as functional. Conditions: Homo sapiens.
Assay [21] in a line: FACS-based assay to assess parasite growth inhibition 48 hr Measured in Cell-Based System Using Flow Cytometry - 2126-03_Inhibitor_Dose_DryPowder_Activity. [Related pubchem assays (depositor defined):AID488774]. It is filed as functional. Conditions: Homo sapiens. (In general: Flow cytometry measures light scatter and fluorescence of single cells or particles in a stream.)

Assay [22] in a line: A cell-based HTS for delayed death inhibitors of the malarial parasite plastid Measured in Microorganism System Using Plate Reader - 2126-02_Inhibitor_Dose_DryPowder_Activity. It is filed as functional, organism-based.
Assay [23] is described as follows: A cell-based HTS for delayed death inhibitors of the malarial parasite plastid Measured in Microorganism System Using Plate Reader - 2126-01_Inhibitor_Dose_DryPowder_Activity. It is filed as functional, organism-based.
For assay [24], the target named is Multidrug resistance protein CDR1 (Candida albicans, UniProt P43071). The assay is described as follows: inhibition of Nile Red efflux via Candida CDR1 – S. cerevisiae AD1-8u, singleplex, Cherry Pick1 hits, dose response (AID 588606). The assay is classed as functional.

The source made the active and inactive calls.

T2 sequence (P49841 whole entry): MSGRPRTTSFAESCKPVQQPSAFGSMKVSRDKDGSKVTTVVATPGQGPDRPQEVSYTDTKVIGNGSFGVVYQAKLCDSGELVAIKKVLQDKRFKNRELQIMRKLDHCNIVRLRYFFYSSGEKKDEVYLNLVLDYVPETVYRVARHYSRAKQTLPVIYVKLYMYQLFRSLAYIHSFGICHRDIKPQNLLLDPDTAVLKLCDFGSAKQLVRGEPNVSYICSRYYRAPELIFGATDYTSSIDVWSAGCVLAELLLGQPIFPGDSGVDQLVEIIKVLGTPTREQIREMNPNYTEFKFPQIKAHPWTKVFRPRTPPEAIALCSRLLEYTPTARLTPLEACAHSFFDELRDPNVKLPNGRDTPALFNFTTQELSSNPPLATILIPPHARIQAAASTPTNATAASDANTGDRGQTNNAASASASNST
Chain of Cyclin-dependent kinase 5/CDK5 activator 1 (Q00535 whole entry): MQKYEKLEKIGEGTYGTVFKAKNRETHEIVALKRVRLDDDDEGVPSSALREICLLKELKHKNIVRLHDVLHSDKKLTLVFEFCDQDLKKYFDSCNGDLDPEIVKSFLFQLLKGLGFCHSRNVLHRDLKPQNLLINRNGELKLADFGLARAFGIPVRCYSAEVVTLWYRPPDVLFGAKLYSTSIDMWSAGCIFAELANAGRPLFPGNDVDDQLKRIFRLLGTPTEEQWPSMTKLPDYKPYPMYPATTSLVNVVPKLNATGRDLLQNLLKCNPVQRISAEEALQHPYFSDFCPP
Chain of Cyclin-dependent kinase 5/CDK5 activator 1 (Q15078 whole entry, further chain): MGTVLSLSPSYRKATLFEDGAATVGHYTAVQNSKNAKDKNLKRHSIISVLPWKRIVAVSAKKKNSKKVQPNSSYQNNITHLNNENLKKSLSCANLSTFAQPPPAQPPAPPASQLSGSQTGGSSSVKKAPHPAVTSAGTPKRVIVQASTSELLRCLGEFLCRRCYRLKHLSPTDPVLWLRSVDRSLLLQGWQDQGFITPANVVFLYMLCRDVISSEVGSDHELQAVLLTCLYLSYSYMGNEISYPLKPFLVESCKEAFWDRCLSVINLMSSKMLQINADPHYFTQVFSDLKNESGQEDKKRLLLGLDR
Chain of X-box-binding protein 1 (P17861 whole entry): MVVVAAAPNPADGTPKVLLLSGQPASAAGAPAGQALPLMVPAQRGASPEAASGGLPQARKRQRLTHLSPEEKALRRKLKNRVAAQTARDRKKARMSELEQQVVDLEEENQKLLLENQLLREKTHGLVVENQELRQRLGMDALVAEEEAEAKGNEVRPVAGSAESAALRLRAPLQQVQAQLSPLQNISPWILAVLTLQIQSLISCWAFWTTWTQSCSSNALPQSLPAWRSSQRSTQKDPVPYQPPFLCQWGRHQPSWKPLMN
Chain of ALK tyrosine kinase receptor (Q9UM73 whole entry): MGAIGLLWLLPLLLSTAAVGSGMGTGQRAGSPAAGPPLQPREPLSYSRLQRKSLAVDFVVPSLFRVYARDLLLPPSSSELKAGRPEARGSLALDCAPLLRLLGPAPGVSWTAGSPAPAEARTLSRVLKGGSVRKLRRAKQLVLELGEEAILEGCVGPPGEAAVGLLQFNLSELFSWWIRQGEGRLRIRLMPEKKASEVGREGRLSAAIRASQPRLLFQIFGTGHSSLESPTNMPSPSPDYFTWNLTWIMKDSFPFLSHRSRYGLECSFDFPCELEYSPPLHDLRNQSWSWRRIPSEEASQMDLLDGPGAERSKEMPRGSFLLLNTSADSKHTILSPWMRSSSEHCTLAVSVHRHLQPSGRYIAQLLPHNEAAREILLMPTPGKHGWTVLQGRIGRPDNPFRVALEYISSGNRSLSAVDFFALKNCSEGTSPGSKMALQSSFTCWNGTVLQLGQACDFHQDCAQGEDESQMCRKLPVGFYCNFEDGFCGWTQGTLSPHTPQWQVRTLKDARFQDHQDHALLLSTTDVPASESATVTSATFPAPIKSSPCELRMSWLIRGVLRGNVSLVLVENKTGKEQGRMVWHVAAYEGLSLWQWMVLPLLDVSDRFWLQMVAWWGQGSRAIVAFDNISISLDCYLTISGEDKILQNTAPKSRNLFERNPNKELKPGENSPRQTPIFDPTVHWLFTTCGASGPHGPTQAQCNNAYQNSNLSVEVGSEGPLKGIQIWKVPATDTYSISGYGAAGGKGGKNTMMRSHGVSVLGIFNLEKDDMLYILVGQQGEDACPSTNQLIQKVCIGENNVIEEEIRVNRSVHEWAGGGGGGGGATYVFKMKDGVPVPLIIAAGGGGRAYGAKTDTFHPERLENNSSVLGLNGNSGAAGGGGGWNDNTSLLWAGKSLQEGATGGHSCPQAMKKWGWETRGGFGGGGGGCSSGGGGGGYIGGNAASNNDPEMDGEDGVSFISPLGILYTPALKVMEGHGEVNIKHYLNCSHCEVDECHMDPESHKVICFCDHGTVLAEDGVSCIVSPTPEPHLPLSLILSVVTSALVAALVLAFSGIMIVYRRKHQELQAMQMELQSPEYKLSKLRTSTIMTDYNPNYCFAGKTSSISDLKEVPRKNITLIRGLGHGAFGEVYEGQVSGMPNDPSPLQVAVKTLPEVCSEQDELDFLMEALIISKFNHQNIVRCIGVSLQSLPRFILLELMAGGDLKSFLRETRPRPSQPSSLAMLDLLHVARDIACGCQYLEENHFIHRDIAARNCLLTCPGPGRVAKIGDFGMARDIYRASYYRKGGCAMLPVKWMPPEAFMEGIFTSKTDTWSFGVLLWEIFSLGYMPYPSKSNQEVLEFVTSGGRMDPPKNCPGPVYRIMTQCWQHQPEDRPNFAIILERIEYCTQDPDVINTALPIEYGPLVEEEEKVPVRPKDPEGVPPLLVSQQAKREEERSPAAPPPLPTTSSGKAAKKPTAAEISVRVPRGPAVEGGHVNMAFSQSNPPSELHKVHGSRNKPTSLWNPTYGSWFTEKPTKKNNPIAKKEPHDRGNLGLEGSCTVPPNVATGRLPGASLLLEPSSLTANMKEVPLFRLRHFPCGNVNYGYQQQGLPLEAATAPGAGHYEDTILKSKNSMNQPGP
Chain of Cyclin-dependent kinase 19 (Q9BWU1 whole entry): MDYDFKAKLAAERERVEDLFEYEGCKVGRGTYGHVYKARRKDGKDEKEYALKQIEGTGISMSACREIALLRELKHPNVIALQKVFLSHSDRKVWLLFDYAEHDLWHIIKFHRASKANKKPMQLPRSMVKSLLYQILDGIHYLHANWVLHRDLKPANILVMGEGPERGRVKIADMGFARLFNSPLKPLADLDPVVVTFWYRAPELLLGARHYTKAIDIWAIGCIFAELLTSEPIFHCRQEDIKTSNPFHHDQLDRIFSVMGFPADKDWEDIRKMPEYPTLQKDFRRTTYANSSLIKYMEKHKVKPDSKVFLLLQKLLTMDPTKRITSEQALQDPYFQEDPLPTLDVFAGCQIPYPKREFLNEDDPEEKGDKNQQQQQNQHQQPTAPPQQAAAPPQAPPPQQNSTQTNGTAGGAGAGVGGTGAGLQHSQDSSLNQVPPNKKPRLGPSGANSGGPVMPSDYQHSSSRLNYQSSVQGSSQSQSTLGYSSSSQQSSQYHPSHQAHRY
Chain of G-protein coupled receptor 55 (Q9Y2T6 whole entry): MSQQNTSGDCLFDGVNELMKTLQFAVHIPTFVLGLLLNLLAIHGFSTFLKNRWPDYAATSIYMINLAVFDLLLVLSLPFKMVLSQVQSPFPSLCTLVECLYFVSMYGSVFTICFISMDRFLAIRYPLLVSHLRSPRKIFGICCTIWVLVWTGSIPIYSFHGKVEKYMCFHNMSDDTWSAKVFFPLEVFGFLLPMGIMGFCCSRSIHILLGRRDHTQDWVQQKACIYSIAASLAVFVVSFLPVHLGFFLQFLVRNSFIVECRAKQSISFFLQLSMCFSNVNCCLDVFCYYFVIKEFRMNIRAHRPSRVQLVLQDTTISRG
Chain of Cell division cycle 7-related protein kinase (O00311 whole entry): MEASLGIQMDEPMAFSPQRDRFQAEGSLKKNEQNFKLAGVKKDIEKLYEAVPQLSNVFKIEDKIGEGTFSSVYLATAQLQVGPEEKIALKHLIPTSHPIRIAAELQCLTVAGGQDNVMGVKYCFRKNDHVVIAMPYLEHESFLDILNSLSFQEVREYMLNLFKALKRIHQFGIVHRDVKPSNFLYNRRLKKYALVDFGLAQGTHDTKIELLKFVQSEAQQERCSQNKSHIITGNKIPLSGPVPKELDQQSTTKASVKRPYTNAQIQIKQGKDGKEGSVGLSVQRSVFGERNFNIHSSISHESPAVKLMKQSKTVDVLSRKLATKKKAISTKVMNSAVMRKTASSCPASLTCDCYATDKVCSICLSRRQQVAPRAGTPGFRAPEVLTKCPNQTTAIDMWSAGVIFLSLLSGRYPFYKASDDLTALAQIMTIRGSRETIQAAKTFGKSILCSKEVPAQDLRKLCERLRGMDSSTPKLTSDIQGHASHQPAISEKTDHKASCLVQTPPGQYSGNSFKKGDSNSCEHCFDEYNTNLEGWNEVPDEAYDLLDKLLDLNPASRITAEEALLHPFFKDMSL
Chain of Protein disulfide-isomerase (P07237 whole entry): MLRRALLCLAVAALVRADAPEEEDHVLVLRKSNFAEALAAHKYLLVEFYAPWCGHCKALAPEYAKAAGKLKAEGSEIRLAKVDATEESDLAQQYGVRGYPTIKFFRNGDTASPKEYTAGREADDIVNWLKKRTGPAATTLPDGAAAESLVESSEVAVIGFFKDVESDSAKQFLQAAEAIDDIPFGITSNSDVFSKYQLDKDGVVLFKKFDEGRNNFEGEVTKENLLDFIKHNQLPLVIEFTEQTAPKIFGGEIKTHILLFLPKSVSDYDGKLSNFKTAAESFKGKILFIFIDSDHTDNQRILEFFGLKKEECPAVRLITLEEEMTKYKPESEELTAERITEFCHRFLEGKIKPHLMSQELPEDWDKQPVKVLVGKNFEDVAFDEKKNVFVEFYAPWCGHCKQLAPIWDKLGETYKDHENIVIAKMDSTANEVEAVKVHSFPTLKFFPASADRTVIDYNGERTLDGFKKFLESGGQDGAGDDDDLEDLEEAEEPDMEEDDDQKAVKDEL

Regarding `CSc1ccc(-c2sc(Nc3ccccc3)n[n+]2-c2ccccc2)cc1`, the EC50 (in general, the concentration needed to bring the measured effect to its halfway point) in [1] is > 32 µM (inactive); in [2] it was 7.33 µM (active).

In the case of `Cc1cccc(CNc2cc(-c3c[nH]c4ncccc34)cc(Cl)n2)c1C`, the Ki (usually a measure of affinity in units of concentration, obtained from inhibition or displacement) in assay [3] is 0.501 µM (active); in assay [4], 0.00126 µM (active); in assay [5] it was 0.398 µM (active); in assay [6] it was > 10 µM (inactive); in [7], 0.0251 µM (active); in [8], 0.158 µM (active). Also, the Ki in assay [9] is 0.00501 µM (active); in [10], 0.00398 µM (active).

As to `O=C(O)c1c(Cl)ccc2cc(-n3cccc3)cnc12`, the results for the Ki in assay [11] and in [12] were 3.98 µM (active) and > 100 µM (inactive), respectively.

Regarding `COc1ccc(N2CCN(C(=O)c3ccc(CNc4c(N5CCCC(C)C5)c(=O)c4=O)cc3)CC2)cc1` (stereo unspecified), the CC50 (as a rule, the concentration that lowers cell viability or growth by half) is > 100 µM (inconclusive) in [13], > 50 µM (inconclusive) in assay [14] and > 98.4 µM (active) in assay [15].

With `CC(C)CCNC(=O)CSc1nc2c(c(=O)[nH]1)CCC2`, the half-maximal cytotoxic concentration (CC50) in assay [16] is > 100 µM (active).

As to `CCN(CC)CCNC(=O)C(C(=O)c1ccccc1)n1ccccc1=O` (stereo unspecified), the concentration at half-maximal activity (AC50) (as a rule, the concentration giving half of the maximal activity seen) in [17] was 2.16 µM (active).

For `O=C(Nc1cccc(Cl)c1)Nc1ccnc(-c2cccnc2)n1`, the “Absolute IC50 (XBP1)” value at X-box-binding protein 1 is 10 µM. Besides, the results for the concentration at half-maximal activity (AC50) in assay [18], in assay [19] and in assay [20] were 3.97 µM (active), 0.716 µM (active) and 20.8 µM (active), respectively.

Take `COc1ccc(COC[C@H](C)N2C[C@@H](C)[C@H](CN(C)S(=O)(=O)c3ccc(F)cc3)OCCCC[C@H](C)Oc3ccc(NC(=O)Nc4ccccc4)cc3C2=O)cc1`: the AC50 in the assay with Erythrocyte is 0.001 µM (active); in [21], 0.0008 µM (active); in assay [22], 0.00018 µM (active); in assay [23], 0.000294 µM (active).

For `CC(C)=C1C2CCC1C1C(=O)N(c3nc(-c4ccc(C(C)C)cc4)c(C)s3)C(=O)C21` (stereo unspecified), the concentration for a half-maximal effect (EC50) in assay [24] is 3.79 µM (active).
